Experimental data published in patent publication US10683279B2, “Apoptosis signal-regulating kinase 1 inhibitors and methods of use thereof” (Enanta Pharmaceuticals, Inc., priority 2017, dated 2020).

The compounds below were run against ASK1 (Homo sapiens (Human), UniProt Q99683) (assay: ASK1 kinase inhibition, HTRF KinEASE Assay System (TR-FRET)). Settings: 5 nM ASK1 kinase, 1 uM STK3 peptide substrate, 100 uM ATP, 3 hours.
Type: biochemical
Description: The ability (IC50) of compounds to inhibit ASK1 kinase activity was determined by HTRF® KinEASE™ Assay System.
ASK1 was purchased from Thermofisher (Catalogue # PV401.1), ATP was purchased from Sigma (Catalogue # A7699), HTRF® KinEASE™ Assay System was obtained from Cisbio (Bedford, Mass). ½ Area plate was purchased from Perkin Elmer (Catalogue # #6005560). HTRF® KinEASE™-STK is a generic method for measuring serine/threonine kinase activities using a time-resolved fluorescence resonance energy transfer (TR-FRET) immunoassay. The IC50 value for each compound was determined in the presence of compound (various concentration from 0 to 10 μM) and a fixed amount of ATP and peptide substrates. The test compound, luM STK3 peptide substrate, and 5 nM of ASK1 kinase are incubated with kinase reaction buffer containing 50 mM HEPES pH 7.5, 0.01% BRIJ-35, 10 mM MgCl2, and 1 mM EGTA for 30 minutes. 100 uM ATP is added to start kinase reaction and incubated for 3 hours. The STK3-antibody labeled with Eu^3+-Cryptate and 125 nM streptavidin-XL665 are mixed in a single addition with stop reagents provided by the Cisbio kit used to stop the kinase reaction. Fluorescence is detected using an Envision Multilabeled 2014 reader from PerkinElmer. The Fluorescence is measured at 615 nm (Cryptate) and 665 nm (XL665) and a ratio of 665 nm/615 nm is calculated for each well. The resulting TR-FRET is proportional to the phosphorylation level. Staurosporine was used as the positive control. IC50 was determined by XLfit 5.3.
By using above method, the inhibition of ASK1 was tested for the compound of formula (I). IC50 ranges are as follows: A<1 nM; 1 nM<B<10 nM; 10 nM<C<100 nM; 100 nM<D

Sequence of ASK1 (Q99683 whole entry): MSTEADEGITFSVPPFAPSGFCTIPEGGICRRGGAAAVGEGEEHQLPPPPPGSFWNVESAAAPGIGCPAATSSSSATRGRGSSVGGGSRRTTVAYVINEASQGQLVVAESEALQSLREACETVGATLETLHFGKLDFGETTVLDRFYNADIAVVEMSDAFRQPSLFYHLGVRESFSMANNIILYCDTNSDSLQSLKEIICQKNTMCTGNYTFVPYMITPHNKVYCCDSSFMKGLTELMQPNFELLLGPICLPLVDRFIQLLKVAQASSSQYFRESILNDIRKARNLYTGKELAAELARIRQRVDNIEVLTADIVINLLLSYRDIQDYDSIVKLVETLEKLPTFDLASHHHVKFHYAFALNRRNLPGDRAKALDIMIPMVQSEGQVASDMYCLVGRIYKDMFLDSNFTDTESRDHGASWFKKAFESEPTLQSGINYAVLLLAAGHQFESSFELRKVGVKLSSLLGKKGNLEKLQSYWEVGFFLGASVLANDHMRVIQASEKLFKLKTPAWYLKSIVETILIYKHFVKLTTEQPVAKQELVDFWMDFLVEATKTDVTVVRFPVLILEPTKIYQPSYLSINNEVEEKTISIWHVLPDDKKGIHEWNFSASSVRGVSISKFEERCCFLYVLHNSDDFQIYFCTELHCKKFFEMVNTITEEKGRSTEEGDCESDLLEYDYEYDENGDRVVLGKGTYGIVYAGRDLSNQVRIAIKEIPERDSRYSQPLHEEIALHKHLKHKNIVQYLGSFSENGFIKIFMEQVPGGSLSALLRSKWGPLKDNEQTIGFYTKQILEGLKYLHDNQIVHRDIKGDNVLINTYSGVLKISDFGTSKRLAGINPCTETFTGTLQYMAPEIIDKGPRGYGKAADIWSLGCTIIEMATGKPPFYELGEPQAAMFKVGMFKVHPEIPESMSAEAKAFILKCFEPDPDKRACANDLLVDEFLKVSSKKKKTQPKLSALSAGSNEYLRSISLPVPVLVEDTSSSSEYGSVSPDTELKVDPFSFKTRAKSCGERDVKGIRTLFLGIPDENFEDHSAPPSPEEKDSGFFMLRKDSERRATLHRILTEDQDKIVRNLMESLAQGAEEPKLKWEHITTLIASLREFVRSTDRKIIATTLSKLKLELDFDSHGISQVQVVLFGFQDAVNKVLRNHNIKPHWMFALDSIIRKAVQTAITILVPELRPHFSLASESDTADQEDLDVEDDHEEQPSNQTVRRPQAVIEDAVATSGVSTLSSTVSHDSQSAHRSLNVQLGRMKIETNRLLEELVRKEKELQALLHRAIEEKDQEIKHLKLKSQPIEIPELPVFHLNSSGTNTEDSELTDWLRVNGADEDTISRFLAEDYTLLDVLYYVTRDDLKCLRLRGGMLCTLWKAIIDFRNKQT

Compound | IC50 [nM]
Cc1cc(F)c(C(=O)Nc2cccc(-c3nnnn3[C@H](C)CO)n2)cc1-n1cnc(C2CC2)c1 [Example 7a, (R)-5-(4-cyclopropyl-1H-imidazol-1-yl)-2-fluoro-N-(6-(1-(1-hydroxypropan-2-yl)-1H-tetrazol-5-yl)pyridin-2-yl)-4-methylbenzamide] | 1 to 10
Cc1cc(F)c(C(=O)Nc2cccc(-c3nnnn3C3CC3)n2)cc1-n1cnc(C2CC2)c1 [Example 2a, 5-(4-cyclopropyl-1H-imidazol-1-yl)-2-fluoro-N-(6-(1-cyclopropyl-1H-tetrazol-5-yl)pyridin-2-yl)-4-methylbenzamid] | 1 to 10
Cc1cc(F)c(C(=O)Nc2cccc(-c3nnnn3C3CC(F)(F)C3)n2)cc1-n1cnc(C2CC2)c1 [Example 11a] | 1 to 10
Cc1cc(F)c(C(=O)Nc2cccc(-c3nnnn3[C@H](C)CF)n2)cc1-n1cnc(C2CC2)c1 [Example 14a] | 1 to 10
Cc1cc(F)c(C(=O)Nc2cccc(-n3nnnc3C(C)C)n2)cc1-n1cnc(C(F)(F)F)c1 [Example 2b] | > 100
Cc1cnc(C(=O)Nc2cccc(-c3nnnn3[C@H](C)CO)n2)cc1-n1cnc(C(C)(C)C)c1 [Example 53a] | 1 to 10
C[C@H](CO)n1nnnc1-c1cccc(NC(=O)c2cc(-n3cnc(C4CC4)c3)c(C(F)F)cc2F)n1 [Example 32a] | 1 to 10
Cc1cc(F)c(C(=O)Nc2cccc(-n3nnnc3C(C)C)n2)cc1-n1cnc(C2CC2)c1 [Example 1b, 5-(4-cyclopropyl-1H-imidazol-1-yl)-2-fluoro-N-(6-(5-isopropyl-1H-tetrazol-1-yl)pyridin-2-yl)-4-methylbenzamide] | 1 to 10
Cc1cnc(C(=O)Nc2cccc(-c3nnnn3C(C)C)n2)cc1-n1cnc(C2CC2)c1 [Example 48a] | 10 to 100
Cc1cc(F)c(C(=O)Nc2cccc(-c3nnnn3C3(C)CC3)n2)cc1-n1cnc(C2CC2)c1 [Example 3a, 5-(4-cyclopropyl-1H-imidazol-1-yl)-2-fluoro-N-(6-(1-(1-methylcyclo-propyl)-1H-tetrazol-5-yl)pyridin-2-yl)-4-methylbenzamide] | 1 to 10
Cc1cc(F)c(C(=O)Nc2cccc(-c3nnnn3[C@H](C)COC(=O)c3ccccc3)n2)cc1-n1cnc(C2CC2)c1 [Example 25a] | > 1000
Cc1cc(F)c(C(=O)Nc2cccc(-c3nnnn3CC(F)F)n2)cc1-n1cnc(C2CC2)c1 [Example 12a] | 1 to 10
Cc1cc(F)c(C(=O)Nc2cccc(-c3nnnn3[C@H](C)CO)n2)cc1-n1cnc(C(F)(F)F)c1 [Example 28a] | 1 to 10
Cc1cnc(C(=O)Nc2cccc(-n3nnnc3C(C)C)n2)cc1-n1cnc(C(C)(C)C)c1 [Example 5b] | 1 to 10
